Values of other authors as cited in patent publication US20060057183A1, “Indwelling stent” (priority 2003, published 2006).

Tested on: human vascular cells
Details: Mohacsi et al., J Heart Lung Transplant 1997

C=CC[C@@H]1/C=C(\C)C[C@H](C)C[C@H](OC)[C@H]2O[C@@](O)(C(=O)C(=O)N3CCCC[C@H]3C(=O)O[C@H](/C(C)=C/[C@@H]3CC[C@@H](O)[C@H](OC)C3)[C@H](C)[C@@H](O)CC1=O)[C@H](C)C[C@@H]2OC [tacrolimus (FK506), Tacrolimus]
antiproliferative effects on human vascular cells: antiproliferative effects
